Assays:
Experiment in all cases: relative viability (nuclei count vs DMSO), 5 days (fraction); higher = more cells survive
CX-5461 + Pemetrexed = compound: Cc1cnc(CNC(=O)c2c(=O)c3ccc(N4CCCN(C)CC4)nc3n3c2sc2ccccc23)cn1 [CX-5461] + Nc1nc2[nH]cc(CCc3ccc(C(=O)N[C@@H](CCC(=O)O)C(=O)O)cc3)c2c(=O)[nH]1 [Pemetrexed] (partner 0.2 µM)
How it was run: (§1)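 One day after seeding in 1536-well plates, lung cancer cell lines were dosed by pin tool. Dosing was either single-drug or a fixed anchor-drug dose plus five library-drug doses (not always all listed) in √10 steps. After 5 days, nuclei were stained in one fix-and-stain step and counted on 4× images, and relative viability is the nuclei count of treated wells over that of vehicle wells, given as the median of duplicate plates.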

IMD-0354 + Trametinib = compound: O=C(Nc1cc(C(F)(F)F)cc(C(F)(F)F)c1)c1cc(Cl)ccc1O [IMD-0354] + CC(=O)Nc1cccc(-n2c(=O)n(C3CC3)c(=O)c3c(Nc4ccc(I)cc4F)n(C)c(=O)c(C)c32)c1 [Trametinib] (partner 0.02 µM)
How it was run: as §1

IMD-0354 + Foretinib = compound: O=C(Nc1cc(C(F)(F)F)cc(C(F)(F)F)c1)c1cc(Cl)ccc1O [IMD-0354] + COc1cc2c(Oc3ccc(NC(=O)C4(C(=O)Nc5ccc(F)cc5)CC4)cc3F)ccnc2cc1OCCCN1CCOCC1 [Foretinib] (partner 0.25 µM)
How it was run: as §1

IMD-0354 + Pemetrexed = compound: O=C(Nc1cc(C(F)(F)F)cc(C(F)(F)F)c1)c1cc(Cl)ccc1O [IMD-0354] + Nc1nc2[nH]cc(CCc3ccc(C(=O)N[C@@H](CCC(=O)O)C(=O)O)cc3)c2c(=O)[nH]1 [Pemetrexed] (partner 0.2 µM)
How it was run: as §1

Row | Cell Line | relative viability (CX-5461 + Pemetrexed; first compound 0.01 µM) | relative viability (CX-5461 + Pemetrexed; first compound 0.03162 µM) | relative viability (CX-5461 + Pemetrexed; first compound 0.1 µM) | relative viability (CX-5461 + Pemetrexed; first compound 0.3162 µM) | relative viability (CX-5461 + Pemetrexed; first compound 1 µM) | relative viability (IMD-0354 + Trametinib; first compound 0.04 µM) | relative viability (IMD-0354 + Trametinib; first compound 0.1265 µM) | relative viability (IMD-0354 + Trametinib; first compound 0.4 µM) | relative viability (IMD-0354 + Trametinib; first compound 1.265 µM) | relative viability (IMD-0354 + Trametinib; first compound 4 µM) | relative viability (IMD-0354 + Foretinib; first compound 0.04 µM) | relative viability (IMD-0354 + Foretinib; first compound 0.1265 µM) | relative viability (IMD-0354 + Foretinib; first compound 0.4 µM) | relative viability (IMD-0354 + Foretinib; first compound 1.265 µM) | relative viability (IMD-0354 + Foretinib; first compound 4 µM) | relative viability (IMD-0354 + Pemetrexed; first compound 0.04 µM) | relative viability (IMD-0354 + Pemetrexed; first compound 0.1265 µM) | relative viability (IMD-0354 + Pemetrexed; first compound 0.4 µM) | relative viability (IMD-0354 + Pemetrexed; first compound 1.265 µM) | relative viability (IMD-0354 + Pemetrexed; first compound 4 µM)
1 | HCC-78 | 0.896 | 0.939 | 0.904 | 0.907 | 0.862 | 0.765 | 0.687 | 0.766 | 0.782 | 0.334 | 0.554 | 0.574 | 0.488 | 0.701 | 0.322 | 0.972 | 0.885 | 0.637 | 0.96 | 0.902
2 | LOU-NH91 | 0.35 | 0.377 | 0.409 | 0.354 | 0.344 | 0.824 | 0.675 | 0.406 | 0.177 | 0.239 | 0.976 | 0.981 | 0.575 | 0.154 | 0.134 | 0.359 | 0.472 | 0.25 | 0.206 | 0.304
3 | NCI-H3122 | 0.201 | 0.196 | 0.2 | 0.206 | 0.18 | 0.215 | 0.223 | 0.178 | 0.252 | 0.147 | 0.959 | 0.964 | 0.722 | 0.779 | 0.129 | 0.196 | 0.211 | 0.18 | 0.281 | 0.15
4 | HCC-827 | 0.292 | 0.253 | 0.268 | 0.225 | 0.331 | 0.54 | 0.524 | 0.469 | 0.393 | 0.197 | 1.05 | 0.978 | 0.625 | 0.282 | 0.19 | 0.26 | 0.267 | 0.243 | 0.19 | 0.163
5 | SW 1573 | 0.88 | 0.845 | 0.153 | 0.692 | 0.203 | 0.631 | 0.554 | 0.384 | 0.107 | 0.105 | 0.891 | 0.928 | 0.579 | 0.61 | 0.123 | 0.872 | 0.799 | 0.271 | 0.131 | 0.0794
6 | NCI-H1975 | 0.286 | 0.296 | 0.274 | 0.331 | 0.264 | 0.4 | 0.379 | 0.271 | 0.159 | 0.138 | 1.01 | 1.03 | 0.483 | 0.18 | 0.16 | 0.292 | 0.311 | 0.234 | 0.175 | 0.157

Reference: the supplement of paper PMC10307832
